| SMILES | melting point [°C] |
| --- | --- |
| O=C(N[C@H]1CC[C@H](CCN2CCN(c3ccccc3F)CC2)CC1)C1CC=CC1 [Example 70, Cyclopent-3-enecarboxylic acid (4-{2-[4-(2-fluorophenyl)-piperazin-1-yl]ethyl}-cyclohexyl)amide trans/cis 95/5] | 204 |
| O=C(N[C@H]1CC[C@H](CCN2CCN(c3ccc(F)cc3F)CC2)CC1)C1=CCCCC1 [Example 71, Cyclohex-1-enecarboxylic acid (4-{2-[4-(2,4-difluorophenyl)-piperazin-1-yl]ethyl}-cyclohexyl)amide] | 203 |
| CCOCC(=O)N[C@H]1CC[C@H](CCN2CCN(c3ccccc3C#N)CC2)CC1 [Example 73, N-(4-{2-[4-(2-Cyanophenyl)-piperazin-1-yl]ethyl}cyclohexyl)-2-ethoxyacetamide] | 96 |
| N#Cc1ccccc1N1CCN(CC[C@H]2CC[C@H](NC(=O)C3=CCCC3)CC2)CC1 [Example 74, Cyclopent-1-enecarboxylic acid (4-{2-[4-(2-cyanophenyl)-piperazin-1-yl]ethyl}cyclohexyl)-amide] | 167 |
| COCCCC(=O)N[C@H]1CC[C@H](CCN2CCN(c3ccccc3F)CC2)CC1 [Example 76, N-(4-{2-[4-(2-Fluorophenyl)-piperazin-1-yl]ethyl}cyclohexyl)-4-methoxybutanamide] | 175 |
| COC(C)(C)C(=O)N[C@H]1CC[C@H](CCN2CCN(c3cccc(C(F)(F)F)c3)CC2)CC1 [Example 77, 2-Methoxy-2-methyl-N-(4-{2-[4-(3-trifluoromethylphenyl)-piperazin-1-yl]ethyl}cyclohexyl)-propanamide] | 105 |
| CCOCC(=O)N[C@H]1CC[C@H](CCN2CCN(c3cccc(C#N)c3)CC2)CC1 [Example 78, N-(4-{2-[4-(3-Cyanophenyl)-piperazin-1-yl]ethyl}cyclohexyl)-2-ethoxyacetamide trans/cis 75/25] | 90 |
| N#CCC(=O)N[C@H]1CC[C@H](CCN2CCN(c3ccccc3F)CC2)CC1 [Example 79, 2-Cyano-N-(4-{2-[4-(2-fluorophenyl)piperazin-1-yl]ethyl}cyclohexyl)acetamide] | 179 to 180 |
| CSCC(=O)N[C@H]1CC[C@H](CCN2CCN(c3cccc(C(F)(F)F)c3)CC2)CC1 [Example 80, 2-Methylsulfanyl-N-(4-{2-[4-(3-trifluoromethylphenyl)piperazin-1-yl]ethyl}cyclohexyl)acetamide] | 128 |
| CCOCC(=O)N[C@H]1CC[C@H](CCN2CCC(c3cccc(C(F)(F)F)c3)CC2)CC1 [Example 83, 2-Ethoxy-N-(4-{2-[4-(3-trifluoromethylphenyl)piperidin-1-yl]ethyl}cyclohexyl)acetamide] | 84 |
| COCCCC(=O)N[C@H]1CC[C@H](CCN2CCC(c3cccc(C(F)(F)F)c3)CC2)CC1 [Example 84, 4-Methoxy-N-(4-{2-[4-(3-trifluoromethylphenyl)piperidin-1-yl]ethyl}cyclohexyl)butanamide] | 134 |
| COCC(=O)N[C@H]1CC[C@H](CCN2CCN(c3cccc(C#N)c3)CC2)CC1 [Example 86, N-(4-{2-[4-(3-Cyanophenyl)piperazin-1-yl]ethyl}cyclohexyl)-2-methoxyacetamide] | 138 |
| O=C(CC(F)(F)F)N[C@H]1CC[C@H](CCN2CCN(c3ccccc3F)CC2)CC1 [Example 87, 3,3,3-Trifluoro-N-(4-{2-[4-(2-fluorophenyl)piperazin-1-yl]ethyl}cyclohexyl)propanamide] | 207 |
| O=C(COc1ccccc1)N[C@H]1CC[C@H](CCN2CCN(c3ccccc3F)CC2)CC1 [Example 88, N-(4-{2-[4-(2-Fluorophenyl)-piperazin-1-yl]ethyl}cyclohexyl)-2-phenoxyacetamide] | 172 |
| CCC(=O)C(=O)N[C@H]1CC[C@H](CCN2CCN(c3ccccc3F)CC2)CC1 [Example 89, N-(4-{2-[4-(2-Fluorophenyl)-piperazin-1-yl]ethyl}cyclohexyl)-2-oxobutanamide] | 156 |
| N#CCC(=O)N[C@H]1CC[C@H](CCN2CCN(c3cccc(C#N)c3)CC2)CC1 [Example 90, 2-Cyano-N-(4-{2-[4-(3-cyanophenyl)piperazin-1-yl]ethyl}cyclohexyl)acetamide trans/cis 75/25] | 188 |
| COCC(=O)N[C@H]1CC[C@H](CCN2CCN(c3cccc(F)c3F)CC2)CC1 [Example 91, N-(4-{2-[4-(2,3-Difluorophenyl)-piperazin-1-yl]ethyl}cyclohexyl)-2-methoxyacetamide] | 155 |
| COCCCC(=O)N[C@H]1CC[C@H](CCN2CCN(c3cc(F)c(F)c(F)c3F)CC2)CC1 [Example 93, 4-Methoxy-N-(4-{2-[4-(2,3,4,5-tetrafluorophenyl)piperazin-1-yl]ethyl}cyclohexyl)butyramide] | 201 |
| CC(C)OCC(=O)N[C@H]1CC[C@H](CCN2CCN(c3ccccc3F)CC2)CC1 [Example 97, N-(4-{2-[4-(2-Fluorophenyl)-piperazin-1-yl]ethyl}cyclohexyl)-2-isopropoxyacetamide] | 96 |

| SMILES | melting point [°C] |
| --- | --- |
| N#CCCCC(=O)N[C@H]1CC[C@H](CCN2CCN(c3cc(F)c(F)c(F)c3F)CC2)CC1 [Example 98, 4-Cyano-N-(4-{2-[4-(2,3,4,5-tetrafluorophenyl)piperazin-1-yl]ethyl}cyclohexyl)butyramide] | 180 |
| COCCCC(=O)N[C@H]1CC[C@H](CCN2CCN(c3ccccc3)CC2)CC1 [Example 99, 4-Methoxy-N-{4-[2-(4-phenylpiperazin-1-yl)ethyl]cyclohexyl}butanamide] | 172 |
| CC(C)OCC(=O)N[C@H]1CC[C@H](CCN2CCN(c3cccc(C(F)(F)F)c3C#N)CC2)CC1 [Example 101, N-(4-{2-[4-(2-Cyano-3-trifluoromethylphenyl)piperazin-1-yl]ethyl}cyclohexyl)-2-isopropoxyacetamide] | 144 |
| CCOCC(=O)N[C@H]1CC[C@H](CCN2CCN(c3cccc(C(F)(F)F)c3C#N)CC2)CC1 [Example 102, N-(4-{2-[4-(2-Cyano-3-trifluoromethylphenyl)piperazin-1-yl]ethyl}cyclohexyl)-2-ethoxyacetamide] | 173 |
| N#CCC(=O)N[C@H]1CC[C@H](CCN2CCN(c3cccc(C(F)(F)F)c3C#N)CC2)CC1 [Example 103, 2-Cyano-N-(4-{2-[4-(2-cyano-3-trifluoromethylphenyl)piperazin-1-yl]ethyl}cyclohexyl)acetamide] | 222 |
| CC(=O)NCC(=O)N[C@H]1CC[C@H](CCN2CCN(c3cccc(C(F)(F)F)c3)CC2)CC1 [Example 105, 2-Acetylamino-N-(4-{2-[4-(3-trifluoromethylphenyl)piperazin-1-yl]ethyl}cyclohexyl)acetamide] | 187 |
| N#CCC(=O)N[C@H]1CC[C@H](CCN2CCN(c3cc(C(F)(F)F)cc(C(F)(F)F)c3)CC2)CC1 [Example 107, N-(4-{2-[4-(3,5-Bistrifluoro-methylphenyl)piperazin-1-yl]ethyl}cyclohexyl)-2-cyanoacetamide] | 196 |
| CCOCC(=O)N[C@H]1CC[C@H](CCN2CCN(c3cc(C(F)(F)F)cc(C(F)(F)F)c3)CC2)CC1 [Example 108, N-(4-{2-[4-(3,5-Bistrifluoro-methylphenyl)piperazin-1-yl]ethyl}cyclohexyl)-2-ethoxyacetamide] | 135 |
| CC(C)(C)c1cc(N2CCN(CC[C@H]3CC[C@H](NC(=O)CC#N)CC3)CC2)nc(C(C)(C)C)n1 [Example 111, 2-Cyano-N-(4-{2-[4-(2,6-di-tert-butylpyrimidin-4-yl)piperazin-1-yl]ethyl}cyclohexyl)acetamide trans/cis 65/35] | 145 |
| CCOCC(=O)N[C@H]1CC[C@H](CCN2CCN(c3cccc(F)c3F)CC2)CC1 [Example 112, N-(4-{2-[4-(2,3-Difluorophenyl)-piperazin-1-yl]ethyl}cyclohexyl)-2-ethoxyacetamide] | 140 |
| N#CCC(=O)N[C@H]1CC[C@H](CCN2CCN(c3cccc(F)c3F)CC2)CC1 [Example 113, 2-Cyano-N-(4-{2-[4-(2,3-difluorophenyl)piperazin-1-yl]ethyl}cyclohexyl)acetamide] | 190 |
| Cc1cccc(N2CCN(CC[C@H]3CC[C@H](NC(=O)CC#N)CC3)CC2)c1C#N [Example 114, 2-Cyano-N-(4-{2-[4-(2-cyano-3-methylphenyl)piperazin-1-yl]ethyl}cyclohexyl)acetamide] | 221 |
| Cc1cccc(N2CCN(CC[C@H]3CC[C@H](NC(=O)CC(F)(F)F)CC3)CC2)c1C#N [Example 115, N-(4-{2-[4-(2-Cyano-3-methylphenyl)piperazin-1-yl]ethyl}cyclohexyl)-3,3,3-trifluoropropanamide] | 207 |
| N#CCC(=O)N[C@H]1CC[C@H](CCN2CCN(c3cccc4c3CCCC4)CC2)CC1 [Example 116, 2-Cyano-N-(4-{2-[4-(5,6,7,8-tetrahydronaphthalen-1-yl)piperazin-1-yl]ethyl}cyclohexyl)acetamide] | 175 |
| CCOCC(=O)N[C@H]1CC[C@H](CCN2CCN(c3cccc4c3CCCC4)CC2)CC1 [Example 117, 2-Ethoxy-N-(4-{2-[4-(5,6,7,8-tetrahydronaphthalen-1-yl)piperazin-1-yl]ethyl}-cyclohexyl)acetamide] | 91 |
| COCC(=O)N[C@H]1CC[C@H](CCN2CCN(c3cc(C(F)(F)F)cc(C(F)(F)F)c3)CC2)CC1 [Example 118, N-(4-{2-[4-(3,5-Bistrifluoro-methylphenyl)piperazin-1-yl]ethyl}cyclohexyl)-2-methoxyacetamide] | 164 |
| COCC(=O)N[C@H]1CC[C@H](CCN2CCN(c3cccc(C(F)(F)F)c3C#N)CC2)CC1 [Example 119, N-(4-{2-[4-(2-Cyano-3-trifluoromethylphenyl)piperazin-1-yl]ethyl}cyclohexyl)-2-methoxyacetamide] | 172 |
| CCOCC(=O)N[C@H]1CC[C@H](CCN2CCN(c3cc(C(C)(C)C)nc(C(C)(C)C)n3)CC2)CC1 [Example 121, N-(4-{2-[4-(2,6-Di-tert-butylpyrimidin-4-yl)piperazin-1-yl]ethyl}cyclohexyl)-2-ethoxyacetamide] | 104 |

From patent US8802678B2, “Carbonylated (aza) cyclohexanes as dopamine D3 receptor ligands” (Bioprojet, priority 2006, dated 2014)
